Source: article PMC10055714, “The Hypolipidemic Characteristics of a Methanol Extract of Fermented Green Tea and Spore of Eurotium cristatum SXHBTBU1934 in Golden Hamsters” (Nutrients, 2023)

Key:
[1] = system: oleic acid-induced HepG2 cell line model; test: Bodipy staining of lipid accumulation in oleic acid-induced HepG2 cells; assay type: cell-based; conditions: Homo sapiens, 24 h, OA-induced HepG2, read-out: Inhibitory Rate of lipid accumulation; for inhibition at 100 µg/mL: 100 μg/mL
Experimental: After treatment with compounds for 24 h in a 96-well plate, the supernatant of the HepG2 cells was discarded and cells were washed twice with PBS, then the cells were fixed with 4% paraformaldehyde at room temperature for 20 min. After removing the fixative reagent, the cells were washed twice with PBS. HepG2 cells were stained with 100 μL Bodipy (2 μg/mL, Thermo Fisher Scientific (Waltham, MA, USA)) in the dark at 25 °C for 30 min [30]. The fluorescence was measured using a fluorescence plate reader (Ex = 500 nm, Em = 550 nm, POLARstar, BMG Labtech (Offenburg, Germany)). The inhibition rate was calculated by comparison with the control group which was just treated with DMSO.

[2] = CCK-8 cell viability assay; conditions: human, HepG2 cells
Experimental: Human hepatoma HepG2 cells were obtained from the Beijing Union Medical Cell Resource Center (Basic Medical Cell Center, Institute of Basic Medical Sciences, Chinese Academy of Medical Sciences). The cells were cultured in DMEM containing 10% FBS and 1% penicillin–streptomycin and incubated with 5% CO2 at 37 °C. Cells were allowed to grow to approximately 80% confluency and were sub-cultured at a ratio of 1:3 [27]. In this study, to simulate the process of nonalcoholic fatty liver disease in vitro, 0.2 mM oleic acid (OA) was added to the culture medium for 48 h to induce human HepG2 to establish a nonalcoholic fatty liver cell model [28].
HepG2 cells were seeded into 96-well plates after achieving logarithmic growth and cultured overnight at 37 °C with 5% CO2. After treatment with different concentrations of compounds (dissolved in DMSO) for 24 h, 10 μL CCK-8 solution (Cell Counting Kit-8, Sigma-Aldrich (St. Louis, MO, USA)) was added to each well and the plate was incubated for 2 h in the incubator. Then, the absorbance at 450 nm was measured using a microplate reader. The normal control group was treated with the same amount of DMSO as the experiment group [29]. Cell viability was calculated by: cell viability (%) = (ODdrug/ODcontrol) × 100%.

[3] = system: oleic acid-induced HepG2 cell line model; test: Oil Red O staining of lipid accumulation in oleic acid-induced HepG2 cells; assay type: cell-based; conditions: Homo sapiens; Oil Red O assay, OA-induced HepG2, 24 h, area of lipid droplets; read-out: IC50 against lipid accumulation
Experimental: HepG2 cells were treated with different concentrations of compounds for 24 h, then were washed twice with PBS and fixed with 4% paraformaldehyde for 15–20 min. The cells were washed with PBS and stained with Oil Red O solution (50 µL per well, Sigma-Aldrich) at 25 °C for 1 h. After washed with PBS for 3–5 times, the lipid droplets and cell morphology were observed by a light microscope and photographed. The area of lipid droplets was statistically compared for IC50 calculation with the control group which was treated with DMSO using Image J software.

| IC50 [3] [nM] | SMILES | inhibition at 100 µg/mL [1] [%] | viability at 24 h, 100 μg/mL [2] [%] | viability at 24 h, 25 μg/mL [2] [%] | inhibition at 25 µg/mL ([1]; 25 μg/mL) [%] |
| --- | --- | --- | --- | --- | --- |
| – | C=CC(C)(C)c1[nH]c2c(CC=C(C)C)cccc2c1/C=C1\NC(=O)[C@H](C)NC1=O [Compound 4, variecolorin G] | -15.3 | – | – | – |
| 127 | C=CC(C)(C)c1[nH]c2c(CC3OC3(C)C)cccc2c1C=C1NC(=O)C(C)NC1=O (centres unmarked) [Compound 1, variecolorin P] | 37.3 | 110 | – | – |
| – | C=CC(C)(C)c1[nH]c2cc(CC=C(C)C)ccc2c1/C=C1\NC(=O)[C@H](C)NC1=O [Compound 3, neoechinulin D] | -67.3 | 11.2 | – | – |
| – | C=CC(C)(C)c1[nH]c2c(CC=C(C)C)cc(CC=C(C)C)cc2c1C[C@@H]1NC(=O)[C@H](C)NC1=O [Compound 5, echinulin] | – | – | 94.5 | 5.46 |
